Data taken from ChEMBL document CHEMBL3414421, “Structure-activity relationship studies and in vivo activity of guanidine-based sphingosine kinase inhibitors: discovery of SphK1- and SphK2-selective inhibitors” (J Med Chem, 2015).
pKi: −log10 of the molar value. Activity calls are given as the source filed them. The calls are words filed in the database; no cut-off is given here.

Columns and labels:
[1] = target: T1, Sphingosine kinase 2 (Homo sapiens) (UniProt Q9NRA0); assay: Inhibition of human recombinant SphK2 expressed in Sf9 cells assessed as enzyme activity measured as radiolabeled products using 10 uM sphingosine and 10 uM gamma[32P]ATP at 1 uM by liquid scintillation counting; design: scale not given: the % may be the effect or the level left
T1 sequence (whole entry): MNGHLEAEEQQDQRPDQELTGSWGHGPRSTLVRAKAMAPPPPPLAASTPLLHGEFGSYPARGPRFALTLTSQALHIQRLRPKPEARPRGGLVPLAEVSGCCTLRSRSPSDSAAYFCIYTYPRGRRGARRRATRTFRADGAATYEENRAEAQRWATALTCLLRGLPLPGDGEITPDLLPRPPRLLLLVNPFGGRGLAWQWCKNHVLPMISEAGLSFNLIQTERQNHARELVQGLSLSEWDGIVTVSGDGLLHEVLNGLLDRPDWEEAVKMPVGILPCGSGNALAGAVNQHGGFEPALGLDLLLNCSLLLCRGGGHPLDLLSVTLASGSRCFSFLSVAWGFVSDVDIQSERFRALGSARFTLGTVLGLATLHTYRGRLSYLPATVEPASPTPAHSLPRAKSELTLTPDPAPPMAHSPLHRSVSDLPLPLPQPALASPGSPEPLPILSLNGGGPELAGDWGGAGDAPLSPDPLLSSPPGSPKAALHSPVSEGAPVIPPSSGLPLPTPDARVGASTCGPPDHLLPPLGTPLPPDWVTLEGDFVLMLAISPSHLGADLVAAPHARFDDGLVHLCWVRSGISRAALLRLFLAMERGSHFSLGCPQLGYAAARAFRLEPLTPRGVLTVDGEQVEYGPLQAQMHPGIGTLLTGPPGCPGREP

Sphingosine kinase 2 = target: T2, Sphingosine kinase 2 (Homo sapiens, UniProt Q9NRA0); assay: biochemical
T2 sequence (Q9NRA0 whole entry): T1 sequence (whole entry)
Description: Inhibition of human recombinant SphK2 expressed in Sf9 cells assessed as radiolabeled products using 10 uM sphingosine and 10 uM gamma[32P]ATP by liquid scintillation counting

U-937 [2] = assay: Decrease in S1P level in human U937 cells at 100 nM after 2 hrs incubation by LC-MS-MS analysis
[3] = Drug uptake in human U937 cells assessed as accumulation in cells at 100 nM to 1 uM after 2 hrs incubation by LC-MS-MS analysis; format: ADME, cell-based; conditions: u-937, 2 h, 0.1 µM
U-937 [4] = assay: Reduction in S1P level in human U937 cells at 100 nM to 1 uM after 2 hrs incubation by LC-MS-MS analysis; format: functional, cell-based
[5] = Half life in rat; format: ADME, organism-based; conditions: in vivo
in vivo = conditions: mouse, ip, 10 mg/kg
Description: Half life in mouse at 10 mg/kg, ip

[6] = Cytotoxicity against human U937 cells assessed as cell viability up to 3 uM after 24 hrs by trypan blue dye assay; format: cell-based; conditions: u-937, 24 h
Mus musculus [7] = assay: Increase in S1p level in C57BL6/j mouse blood at 10 mg/kg, ip up to 8 hrs by LC-MS-MS analysis relative to control; format: functional; conditions: route intraperitoneal
[8] = target: T1, Sphingosine kinase 2 (Homo sapiens); conditions: U-937, 3 uM
Description: Inhibition of SphK2 in human U937 cells assessed as decrease in phosphorylated FTY720 substrate at 3 uM after 2 hrs incubation by LC-MS-MS analysis

U-937 [9] = assay: Increase in sphingosine level in human U937 cells at 100 nM to 1 uM after 2 hrs incubation by LC-MS-MS analysis; format: functional, cell-based
Mus musculus [10] = assay: Increase in Sph level in C57BL6/j mouse blood at 10 mg/kg, ip up to 8 hrs by LC-MS-MS analysis relative to control; format: functional, organism-based; design: dose 10 mg/kg

SMILES	Activity [1] [%]	also measured
CCCCCCCCc1ccc(-c2noc([C@H](CO)NC(=N)N)n2)cc1	99	–
CCCCCc1ccc(/C=C/[C@H](O)[C@@H](CO)NC)cc1	–	pKi (Sphingosine kinase 2): < 4.00
CCCCCCCCc1ccc(-c2noc([C@@H](NC(=N)N)C(C)C)n2)cc1	85	–
CCCCCCCCc1ccc(-c2noc(CC[C@@H]3CCCN3C(=N)N)n2)cc1	100	–
CCCCCCCCCCc1ccc(NC(=O)[C@H]2CCCN2C(=N)N)cc1	100	–
CCCCCCCCc1ccc(CC[C@](N)(CO)COC)cc1	–	pKi (Sphingosine kinase 2): 4.78
CCCCCCCCc1ccc(-c2noc([C@H]3CCCN3C(=N)N)n2)cc1	90	–
CCCCCCCCc1ccc(CNC(=O)[C@@H]2CCCN2C(=N)N)cc1	95	–
CCCCCCCCc1ccc(-c2nc([C@@H]3CCCN3C(=N)N)no2)cc1	42	pKi (Sphingosine kinase 2): 5.96
CCCCCCCCc1ccc(-c2noc([C@@H]3CCCCN3C(=N)N)n2)cc1	92	–
CCCCCCCCc1ccc(-c2noc([C@@H]3CCCN3C(=N)N)n2)cc1.Cl	44	pKi (Sphingosine kinase 2): 5.89
CCCCCCCCc1ccc(-c2noc(C[C@@H]3CCCN3C(=N)N)n2)cc1.Cl	–	Inhibition (U-937 [2]): 90%; Drug uptake [3]: Active; inhibition (U-937 [4]): Active
CCCCCCCCc1ccc(-c2noc([C@@H]3CCN(C(=N)N)C3)n2)cc1	95	–
CCCCCCCCc1ccc(-c2noc(C3CN(C(=N)N)C3)n2)cc1	96	–
CCCCCCCCCCc1ccc(NC(=O)[C@@H]2CCCN2C(=N)N)cc1	83	–
CCCCCCCCc1ccc(-c2noc([C@@H]3C[C@@H](O)CN3C(=N)N)n2)cc1	70	pKi (Sphingosine kinase 2): 5.28
CCCCCCCCc1ccc(-c2nnc([C@@H]3CCCN3C(=N)N)o2)cc1	91	–
C[C@@H](NC(=O)[C@H]1NCC[C@@H]1O)c1ccc(-c2noc(CCC3CCCC3)n2)cc1	–	half-life [5]: 258 min
Oc1ccc(Nc2nc(-c3ccc(Cl)cc3)cs2)cc1	–	pKi (Sphingosine kinase 2): 4.30
CCCCCCCCc1ccc(-c2noc([C@H](C)NC(=N)N)n2)cc1	94	–
CCCCCCCCc1ccc(-c2noc([C@@H]3C[C@H](O)CN3C(=N)N)n2)cc1	90	–
CCCCCCCCc1ccc(-c2noc([C@@H]3[C@@H](O)CCN3C(=N)N)n2)cc1	65	–
OC[C@H]1C[C@@H](O)CCN1CCc1ccc(Nc2nc(-c3ccc(C(F)(F)F)cc3)cs2)cc1	–	half-life (in vivo): 390 min
CCCCCCCCc1ccc(-c2noc(C3(NC(=N)N)CC3)n2)cc1	98	–
CCCCCCCCc1ccc(-c2noc([C@@H]3C=CCN3C(=N)N)n2)cc1	96	–
CCCCCCCCc1ccc(C(=O)NC[C@@H]2CCCN2C(=N)N)cc1	75	–
CCCCCCCCc1ccc(-c2noc(CNC(=N)N)n2)cc1	90	–
CCCCCCCCc1ccc(-c2noc(CN(C)C(=N)N)n2)cc1	90	–
CCCCCCCCc1ccc(-c2noc([C@@H]3CCN3C(=N)N)n2)cc1.Cl	56	pKi (Sphingosine kinase 2): 5.92; Activity [6]: Non-toxic; fold change (FC) (Mus musculus [7]): 2; inhibition [8]: Active; Activity (U-937 [9]): Active; Activity (Mus musculus [10]): Active; Drug uptake [3]: Active; inhibition (U-937 [4]): Active
